Results reported in paper PMC11435058, “Synthesis of New Thiazole-Privileged Chalcones as Tubulin Polymerization Inhibitors with Potential Anticancer Activities” (Pharmaceuticals, 2024).

Tests used:
[1] = test system: 60 human tumor cell lines panel; assay: NCI-60 anticancer screen, whole panel (means and ranges over the cell lines); format: cell-based
NCI-H522 = assay: NCI-60 anticancer screen (SRB; single dose and five doses); details: Homo sapiens
HCT-116 = assay: as above; details: Homo sapiens
NCI/ADR-RES = assay: as above; details: Homo sapiens
BT-549 = assay: as above; details: Homo sapiens
NCI-H460 = assay: as above; details: Homo sapiens
HOP-62 = assay: as above; details: Homo sapiens
NCI-H322M = assay: as above; details: Homo sapiens
SNB-19 = assay: cells; details: Homo sapiens
PC-3 = assay: NCI-60 anticancer screen (SRB; single dose and five doses); details: Homo sapiens
ACHN = assay: as above; details: Homo sapiens
OVCAR-8 = assay: as above; details: Homo sapiens
COLO 205 = assay: as above; details: Homo sapiens
SK-MEL-28 = assay: as above; details: Homo sapiens
A549/ATCC = assay: as above; details: Homo sapiens
SK-OV-3 = assay: as above; details: Homo sapiens
HCC-2998 = assay: as above
NCI-H226 = assay: as above; details: Homo sapiens
RXF 393 = assay: as above; details: Homo sapiens
MOLT-4 = assay: as above; details: Homo sapiens
RPMI-8226 = assay: as above; details: Homo sapiens
A498 = assay: as above; details: Homo sapiens
MDA-MB-468 = assay: as above; format: cell-based, human
Outline: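 NCI panel of about 60 human tumor cell lines treated with compound at a single concentration (10μM) for 48 h. Growth measured by SRB protein staining and expressed as percent growth of treated versus untreated control cells.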

MALME-3M = assay: as above; details: Homo sapiens
HOP-92 = assay: as above; details: Homo sapiens
[2] = five doses, mean graph midpoint over all cell lines
[3] = 48 h, read-out: Growth Percentage

Cc1[nH]c(=S)sc1C(=O)/C=C/c1cccc([N+](=O)[O-])c1 [2h, (E)-1-(4-Methyl-2-Thioxo-2,3-Dihydrothiazol-5-yl)-3-(3-Nitrophenyl)Prop-2-En-1-One]
activity at 10 µM ([1]; Homo sapiens, 48 h, mean over the tested cell lines, dose of 10 μM, read-out: Mean growth percentage): -21.8%
Log10GI50 _MID [1, 2]: -5.37 Molar
Log10LC50 _MID [1, 2]: -4.34 Molar
Log10TGI _MID [1, 2]: -4.82 Molar
GI50 (NCI-H522; NCI-H522): 5.01 µM
IC50 (NCI-H522; NCI-H522): 11.8 µM
activity at 10 µM (NCI-H522; NCI-H522, 48 h, read-out: Growth Percentage): -58.8%
CC50 (NCI-H522; NCI-H522, read-out: LC50): 46.8 µM
IC (TGI) (NCI-H522; NCI-H522, read-out: TGI): 17.8 µM
GI50 (HCT-116; HCT-116): 2.88 µM
IC50 (HCT-116; HCT-116): 3.31 µM
activity at 10 µM (HCT-116; HCT-116, 48 h, read-out: Growth Percentage): -6.25%
CC50 (HCT-116; HCT-116, read-out: LC50): > 100 µM
IC (TGI) (HCT-116; HCT-116, read-out: TGI): > 100 µM
GI50 (NCI/ADR-RES): 2.51 µM
IC50 (NCI/ADR-RES): 4.27 µM
activity at 10 µM (NCI/ADR-RES; [3]): 8.19%
CC50 (NCI/ADR-RES; read-out: LC50): > 100 µM
IC (TGI) (NCI/ADR-RES; read-out: TGI): 5.75 µM
GI50 (BT-549; BT-549): 3.8 µM
IC50 (BT-549; BT-549): 13.5 µM
activity at 10 µM (BT-549; BT-549, 48 h, read-out: Growth Percentage): -14%
CC50 (BT-549; BT-549, read-out: LC50): 43.6 µM
IC (TGI) (BT-549; BT-549, read-out: TGI): 14.8 µM
GI50 (NCI-H460; NCI-H460): 3.63 µM
IC50 (NCI-H460; NCI-H460): 4.27 µM
activity at 10 µM (NCI-H460; NCI-H460, 48 h, read-out: Growth Percentage): -30.7%
CC50 (NCI-H460; NCI-H460, read-out: LC50): 55 µM
IC (TGI) (NCI-H460; NCI-H460, read-out: TGI): 13.8 µM
GI50 (HOP-62; HOP-62): 3.98 µM
IC50 (HOP-62; HOP-62): 6.76 µM
activity at 10 µM (HOP-62; HOP-62, 48 h, read-out: Growth Percentage): 0.68%
CC50 (HOP-62; HOP-62, read-out: LC50): 40.7 µM
IC (TGI) (HOP-62; HOP-62, read-out: TGI): 12.3 µM
GI50 (NCI-H322M): 8.71 µM
IC50 (NCI-H322M): 17.4 µM
activity at 10 µM (NCI-H322M; [3]): 28.9%
CC50 (NCI-H322M; read-out: LC50): 50.1 µM
IC (TGI) (NCI-H322M; read-out: TGI): 21.9 µM
GI50 (SNB-19; SNB-19): 4.9 µM
IC50 (SNB-19; SNB-19): 11.8 µM
activity at 10 µM (SNB-19; SNB-19, 48 h, read-out: Growth Percentage): 10.4%
CC50 (SNB-19; SNB-19, read-out: LC50): 41.7 µM
IC (TGI) (SNB-19; SNB-19, read-out: TGI): 17 µM
GI50 (PC-3; PC-3): 4.07 µM
IC50 (PC-3; PC-3): 8.13 µM
activity at 10 µM (PC-3; PC-3, 48 h, read-out: Growth Percentage): 8.43%
CC50 (PC-3; PC-3, read-out: LC50): 56.2 µM
IC (TGI) (PC-3; PC-3, read-out: TGI): 17.8 µM
GI50 (ACHN): 4.07 µM
IC50 (ACHN): 6.17 µM
activity at 10 µM (ACHN; [3]): -58.4%
CC50 (ACHN; read-out: LC50): 38.9 µM
IC (TGI) (ACHN; read-out: TGI): 14.8 µM
GI50 (OVCAR-8; OVCAR-8): 3.31 µM
IC50 (OVCAR-8; OVCAR-8): 4.57 µM
activity at 10 µM (OVCAR-8; OVCAR-8, 48 h, read-out: Growth Percentage): 13.4%
CC50 (OVCAR-8; OVCAR-8, read-out: LC50): 38 µM
IC (TGI) (OVCAR-8; OVCAR-8, read-out: TGI): 11.8 µM
GI50 (COLO 205; COLO 205): 5.75 µM
IC50 (COLO 205; COLO 205): 8.71 µM
activity at 10 µM (COLO 205; COLO 205, 48 h, read-out: Growth Percentage): -24.9%
CC50 (COLO 205; COLO 205, read-out: LC50): 51.3 µM
IC (TGI) (COLO 205; COLO 205, read-out: TGI): 19.1 µM
GI50 (SK-MEL-28; SK-MEL-28): 5.5 µM
IC50 (SK-MEL-28; SK-MEL-28): 13.2 µM
activity at 10 µM (SK-MEL-28; SK-MEL-28, 48 h, read-out: Growth Percentage): -47%
CC50 (SK-MEL-28; SK-MEL-28, read-out: LC50): 44.7 µM
IC (TGI) (SK-MEL-28; SK-MEL-28, read-out: TGI): 18.2 µM
GI50 (A549/ATCC; A549): 3.24 µM
IC50 (A549/ATCC; A549): 4.47 µM
activity at 10 µM (A549/ATCC; A549, 48 h, read-out: Growth Percentage): 19.5%
CC50 (A549/ATCC; A549, read-out: LC50): 55 µM
IC (TGI) (A549/ATCC; A549, read-out: TGI): 12 µM
GI50 (SK-OV-3; SK-OV-3): 5.89 µM
IC50 (SK-OV-3; SK-OV-3): 15.1 µM
activity at 10 µM (SK-OV-3; SK-OV-3, 48 h, read-out: Growth Percentage): 44.6%
CC50 (SK-OV-3; SK-OV-3, read-out: LC50): 45.7 µM
IC (TGI) (SK-OV-3; SK-OV-3, read-out: TGI): 18.6 µM
GI50 (HCC-2998; Homo sapiens, HCC 2998): 2 µM
IC50 (HCC-2998; Homo sapiens, HCC 2998): 3.63 µM
activity at 10 µM (HCC-2998; Homo sapiens, HCC 2998, 48 h, read-out: Growth Percentage): -86.7%
CC50 (HCC-2998; Homo sapiens, HCC 2998, read-out: LC50): 11.8 µM
TGI (HCC-2998; five-dose, Colon Cancer HCC-2998): 4.57 µM
GI50 (NCI-H226; NCI-H226): 11.2 µM
IC50 (NCI-H226; NCI-H226): 33.1 µM
activity at 10 µM (NCI-H226; NCI-H226, 48 h, read-out: Growth Percentage): -41.9%
CC50 (NCI-H226; NCI-H226, read-out: LC50): > 100 µM
IC (TGI) (NCI-H226; NCI-H226, read-out: TGI): 38 µM
GI50 (RXF 393; RXF 393): 10.2 µM
IC50 (RXF 393; RXF 393): 24.6 µM
activity at 10 µM (RXF 393; RXF 393, 48 h, read-out: Growth Percentage): -91.9%
CC50 (RXF 393; RXF 393, read-out: LC50): 47.9 µM
IC (TGI) (RXF 393; RXF 393, read-out: TGI): 22.4 µM
GI50 (MOLT-4; MOLT-4): 3.47 µM
IC50 (MOLT-4; MOLT-4): 5.01 µM
activity at 10 µM (MOLT-4; MOLT-4, 48 h, read-out: Growth Percentage): 13.3%
CC50 (MOLT-4; MOLT-4, read-out: LC50): > 100 µM
IC (TGI) (MOLT-4; MOLT-4, read-out: TGI): 30.2 µM
GI50 (RPMI-8226; RPMI-8226): 2.04 µM
activity at 10 µM (RPMI-8226; RPMI-8226, 48 h, read-out: Growth Percentage): 9.39%
IC50 (RPMI-8226; RPMI-8226, five-dose, Leukemia RPMI-8226): 3.72 µM
CC50 (RPMI-8226; RPMI-8226, read-out: LC50): > 100 µM
IC (TGI) (RPMI-8226; RPMI-8226, read-out: TGI): 6.31 µM
GI50 (A498; A498): 14.8 µM
IC50 (A498; A498): 29.5 µM
CC50 (A498; A498, read-out: LC50): 55 µM
IC (TGI) (A498; A498, read-out: TGI): 28.2 µM
activity at 10 µM (MDA-MB-468; Homo sapiens, 48 h, MDA-MB-468, dose of 10 μM, read-out: Growth Percentage): -82.9%
IC50 (MDA-MB-468; Homo sapiens, MDA-MB-468, MDA-MB-468, Breast Cancer, five dose): 7.76 µM
GI50 (MDA-MB-468; Homo sapiens, MDA-MB-468, Breast Cancer, five dose): 2.95 µM
CC50 (MDA-MB-468; Homo sapiens, MDA-MB-468, Breast Cancer, five dose, read-out: LC50 (the source's name)): 40.7 µM
TGI (MDA-MB-468; MDA-MB-468, Breast Cancer, five dose): 10.72 µM
GI50 (MALME-3M): 12.3 µM
IC50 (MALME-3M): 24.6 µM
activity at 10 µM (MALME-3M; [3]): -42.9%
CC50 (MALME-3M; read-out: LC50): 55 µM
IC (TGI) (MALME-3M; read-out: TGI): 26.3 µM
GI50 (HOP-92; HOP-92): 3.89 µM
IC50 (HOP-92; HOP-92): 22.4 µM
CC50 (HOP-92; HOP-92, read-out: LC50): 44.7 µM
IC (TGI) (HOP-92; HOP-92, read-out: TGI): 16.6 µM
